Measurements taken from patent US20210254056A1, “IDENTIFICATION AND TARGETED MODULATION OF GENE SIGNALING NETWORKS” (CAMP4 THERAPEUTICS CORPORATION, priority 2017, published 2021).

Test system: hepatocytes
Assay: RNA-seq of hepatocytes treated with Phase III failure compounds
Experimental: RNA-seq was performed to determine the effects of the compounds on hepatocytes.
Significance was determined by the criteria of FPKM≥0.5, a log 2(fold-change)≥1, and a […].

**Q.** What does the source list for `CCOC(=O)N1c2ccc(C(F)(F)F)cc2[C@@H](N(Cc2cc(C(F)(F)F)cc(C(F)(F)F)c2)C(=O)OC)C[C@H]1CC` [Torcetrapib]?
**A.** RNA-seq results, CYP2B6 expression: 0.36; RNA-seq results, CYP2C19 expression: 0.61; RNA-seq results, CYP2D6 expression: −0.16; RNA-seq results, CYP3A4 expression: 1.87; RNA-seq results, CYP7B1 expression: 0.26; RNA-seq results, CYP39A1 expression: 0.03; RNA-seq results: CYP2B6 expression: 0.09; RNA-seq results: CYP2C19 expression: −0.14; RNA-seq results: CYP2D6 expression: 0.24; RNA-seq results: CYP3A4 expression: 0.49; RNA-seq results: CYP7B1 expression: −0.44; RNA-seq results: CYP39A1 expression: 0; significant modulation of expression of disease genes (RNA-seq, q≤0.05, hepatocytes, genes in the value or listed in the block): significantly (q≤0.05) modulate expression of the following genes: ACTG2, CYP3A4, ID1, KMT2D, and UTRN; RNA-seq results: A1BG expression (gene A1BG, hepatocytes): −0.38; RNA-seq results: AGTR1 expression (gene AGTR1, hepatocytes): −0.45; RNA-seq results: AGXT expression (gene AGXT, hepatocytes): −0.25; RNA-seq results: AHI1 expression (gene AHI1, hepatocytes): 0.19; RNA-seq results: AMPD3 expression (gene AMPD3, hepatocytes): 0.28; RNA-seq results: AMT expression (gene AMT, hepatocytes): −0.11; RNA-seq results: ANGPTL3 expression (gene ANGPTL3, hepatocytes): −0.46; RNA-seq results: ANKS4B expression (gene ANKS4B, hepatocytes): −0.02; RNA-seq results: ANKS6 expression (gene ANKS6, hepatocytes): 0.19; RNA-seq results: ANPEP expression (gene ANPEP, hepatocytes): −0.19; RNA-seq results: AOC2 expression (gene AOC2, hepatocytes): 0.53; RNA-seq results: APOA2 expression (gene APOA2, hepatocytes): −0.76; RNA-seq results: APOA5 expression (gene APOA5, hepatocytes): −0.36; RNA-seq results: APOB expression (gene APOB, hepatocytes): 0.90; RNA-seq results: COG5 expression (gene COG5, hepatocytes): 0.24; RNA-seq results: COG6 expression (gene COG6, hepatocytes): 0.29; RNA-seq results: COL1A1 expression (gene COL1A1, hepatocytes): −0.43; RNA-seq results: COX6A1 expression (gene COX6A1, hepatocytes): 0.62; RNA-seq results: CP expression (gene CP, hepatocytes): −0.27; RNA-seq results: CPS1 expression (gene CPS1, hepatocytes): −0.75; RNA-seq results: CPT1A expression (gene CPT1A, hepatocytes): −0.4; RNA-seq results: CPT2 expression (gene CPT2, hepatocytes): −0.1; RNA-seq results: CROT expression (gene CROT, hepatocytes): −0.33; RNA-seq results: CSPP1 expression (gene CSPP1, hepatocytes): 0.17; RNA-seq results: CTC1 expression (gene CTC1, hepatocytes): −0.2; RNA-seq results: CTDSP2 expression (gene CTDSP2, hepatocytes): 0.03; RNA-seq results: CTH expression (gene CTH, hepatocytes): 2.52; RNA-seq results: CTNS expression (gene CTNS, hepatocytes): −0.12; RNA-seq results: CTSF expression (gene CTSF, hepatocytes): 0.3; RNA-seq results: CTSK expression (gene CTSK, hepatocytes): 0; RNA-seq results: CYB5A expression (gene CYB5A, hepatocytes): 0.21; RNA-seq results: CYB5R3 expression (gene CYB5R3, hepatocytes): 0.07; RNA-seq results: CYP27A1 expression (gene CYP27A1, hepatocytes): 0.12; RNA-seq results: DAO expression (gene DAO, hepatocytes): −0.72; RNA-seq results: DBT expression (gene DBT, hepatocytes): 0; RNA-seq results: DCDC2 expression (gene DCDC2, hepatocytes): −0.51; RNA-seq results: DCXR expression (gene DCXR, hepatocytes): 0.37; RNA-seq results: FABP1 expression (gene FABP1, hepatocytes): 0.58; RNA-seq results: FADD expression (gene FADD, hepatocytes): 0.43; RNA-seq results: FAM111A expression (gene FAM111A, hepatocytes): −0.26; RNA-seq results: FAM111B expression (gene FAM111B, hepatocytes): −1.74; RNA-seq results: FAN1 expression (gene FAN1, hepatocytes): 0.14; RNA-seq results: FARS2 expression (gene FARS2, hepatocytes): 0.06; RNA-seq results: FASLG expression (gene FASLG, hepatocytes): −1.19; RNA-seq results: FGA expression (gene FGA, hepatocytes): −0.25; RNA-seq results: FGD1 expression (gene FGD1, hepatocytes): −0.63; RNA-seq results: FGFR2 expression (gene FGFR2, hepatocytes): 0.15; RNA-seq results: FIG4 expression (gene FIG4, hepatocytes): 0; RNA-seq results: FIS1 expression (gene FIS1, hepatocytes): 0.52; RNA-seq results: FTCD expression (gene FTCD, hepatocytes): −0.05; RNA-seq results: FTH1 expression (gene FTH1, hepatocytes): 0.6; RNA-seq results: FUCA1 expression (gene FUCA1, hepatocytes): 0.01; RNA-seq results: FXN expression (gene FXN, hepatocytes): −0.17; RNA-seq results: G6PC3 expression (gene G6PC3, hepatocytes): −0.07; RNA-seq results: G6PC expression (gene G6PC, hepatocytes): −0.17; RNA-seq results: G6PD expression (gene G6PD, hepatocytes): −0.05; RNA-seq results: GALK1 expression (gene GALK1, hepatocytes): 0.4; RNA-seq results: GALK2 expression (gene GALK2, hepatocytes): 0.22; RNA-seq results: GALT expression (gene GALT, hepatocytes): −0.21; RNA-seq results: GATA6 expression (gene GATA6, hepatocytes): 0.17; RNA-seq results: GATM expression (gene GATM, hepatocytes): −0.33; RNA-seq results: GBA expression (gene GBA, hepatocytes): −0.07; RNA-seq results: GBE1 expression (gene GBE1, hepatocytes): 0.39; RNA-seq results: GCH1 expression (gene GCH1, hepatocytes): 0.23; RNA-seq results: GCKR expression (gene GCKR, hepatocytes): −0.19; RNA-seq results: GCLC expression (gene GCLC, hepatocytes): 0.13; RNA-seq results: GOSH expression (gene GOSH, hepatocytes): 0.22; RNA-seq results: RRM2B (gene RRM2B, hepatocytes): 0.48; RNA-seq results: RSAD1 (gene RSAD1, hepatocytes): −0.11; RNA-seq results: SAMHD1 (gene SAMHD1, hepatocytes): 0.25; RNA-seq results: SC5D (gene SC5D, hepatocytes): −0.01; RNA-seq results: SCARB1 (gene SCARB1, hepatocytes): −0.17; RNA-seq results: SCN9A (gene SCN9A, hepatocytes): 0.25; RNA-seq results: SDCCAG8 (gene SDCCAG8, hepatocytes): −0.03; RNA-seq results: SEPN1 (gene SEPN1, hepatocytes): 0.28; RNA-seq results: SERAC1 (gene SERAC1, hepatocytes): 0.29; RNA-seq results: SERPINA1 (gene SERPINA1, hepatocytes): −0.19; RNA-seq results: SERPING1 (gene SERPING1, hepatocytes): −0.11; RNA-seq results: SERPINI1 (gene SERPINI1, hepatocytes): −0.19; RNA-seq results: SETBP1 (gene SETBP1, hepatocytes): −0.14; RNA-seq results: SFXN4 (gene SFXN4, hepatocytes): −0.46; RNA-seq results: SLC10A1 (gene SLC10A1, hepatocytes): −0.03; RNA-seq results: SLC10A3 (gene SLC10A3, hepatocytes): 0.11; RNA-seq results: SLC10A5 (gene SLC10A5, hepatocytes): 0.18; RNA-seq results: SLC10A7 (gene SLC10A7, hepatocytes): 0.23; RNA-seq results: SLC11A2 (gene SLC11A2, hepatocytes): 0.32; RNA-seq results: SLC19A1 (gene SLC19A1, hepatocytes): −0.21; RNA-seq results: SLC19A2 (gene SLC19A2, hepatocytes): 0.32; RNA-seq results: SLC19A3 (gene SLC19A3, hepatocytes): −0.31; RNA-seq results: SLC22A1 (gene SLC22A1, hepatocytes): −0.22; RNA-seq results: SLC22A5 (gene SLC22A5, hepatocytes): −0.06; RNA-seq results: SLC25A1 (gene SLC25A1, hepatocytes): −0.33; RNA-seq results: SLC25A10 (gene SLC25A10, hepatocytes): −0.31; RNA-seq results: SLC25A12 (gene SLC25A12, hepatocytes): −0.27; RNA-seq results: SLC25A13 (gene SLC25A13, hepatocytes): 0.25; RNA-seq results: SLC25A15 (gene SLC25A15, hepatocytes): −0.09; RNA-seq results: SLC25A19 (gene SLC25A19, hepatocytes): −0.43; RNA-seq results: SLC25A20 (gene SLC25A20, hepatocytes): −0.35; RNA-seq results: SLC25A29 (gene SLC25A29, hepatocytes): −0.13; RNA-seq results: SLC25A32 (gene SLC25A32, hepatocytes): −0.10
